For data set [1], the system named is NIH3T3-T24 3DTMs. Put plainly: Drug efficacy on NIH3T3-T24 3DTM viability. It counts as cell-based, human, murine. As to the method:
After three important tumor phenotypes were captured on Amikagels, we used Amikagel-3DTM platform for high throughput drug screens against those specific phenotypes. T24 (alone), and NIH3T3-T24 3DTMs were exposed to different doses of the DNA-damaging drug, mitoxantrone (31) or the microtubule-stabilizing drug, docetaxel for 96 hours (32). Co-culture 3DTMs were treated with collagenase to allow their disassembly before cell-viability measurement. It was noticed that collagenase treatment enabled very easy diassembly of the co-culture 3DTMs, supporting our previous finding of ECM production.

The test system of data set [2] is T24 cells in 2D culture. Conditions: cited from earlier work.
For data set [3], the system named is T24 bladder cancer cells. Put plainly: Cell cycle analysis of T24 3DTMs. It counts as cell-based, human. As to the method:
Following five days of incubation on AM3 Amikagels, 3DTMs of T24 cells with NIH3T3 murine fibroblast cells were harvested for cell cycle analysis. Four or five individual 3DTMs of T24 cells alone or UMUC3 cells alone were harvested on the 7th day after seeding on Amikagels, collected in an eppendorf tube. 50 μl of 5 mg/ml collagenase was added to 3DTMs prepared using fibroblast helper cells for 30 minutes at 37° C. in order to facilitate their disassembly by gentle pipetteing. Single cell 3DTMs were disassembled using manual pipetting. Disassembled 3DTM cells were then centrifuged at 200 r.c.f. in order to collect the cell pellet. The pellet was resuspended in a solution of 1% v/v 1× Triton-X, 5% (v/v) fetal bovine serum (FBS), 50 μg/mL propidium iodide, and 0.006-0.01 units/mL ribonuclease A. After incubation for 30 minutes on ice, cells were analyzed for their cell cycle profiles using flow cytometry; the propidum iodide (PI) signal was detected using an excitation at 535 nm and emission at 617 nm. Voltages of the FL2-A, SSC and FSC channels were adjusted in order to obtain best representative peaks for alignment of 2n (diploidy—G0/G1) peak to 200 intensity units during flow cytometry. FL2A (FL2-Area) provides the information regarding the pulse area of the emitted fluorescence signal (total cell fluorescence) whereas […] light from the sample. FSC is a measure of diffracted light from the sample proportional to cell surface area or size and SSC is proportional to cell granularity or internal complexity.

Data set [4] concerns dormant T24 3DTMs. Put plainly: Escape from dormancy after transfer of T24 3DTMs from AM3 to AM1 Amikagel. It counts as cell-based, human. Conditions: for microcolony formation: 100 μM pre-treatment, 15 days after transfer to AM1. As to the method: T24 3DTMs were first formed on AM3 Amikagels, and transferred to AM1 Amikagels on the seventh day following initial cell seeding, in order to investigate the role of chemo-mechanical properties of Amikagels on 3DTM fate, dormancy and escape from dormancy. Upon transfer, 3DTMs were monitored for cell spreading and motility on the gel for an additional 7 days. After 7 days, cell cycle analysis was carried out on the all 3DTMs as described in the previous sections.
Long-term experiments were also carried out where 3DTMs were continuously monitored for 15 days after their tranfer from AM3 gel to AM1 gel. In order to study the effect of drug treatment, T24 3DTMs were first treated with 0-100 μM docetaxel for 96 hours after 7 days of initial seeding of cells on AM3 gel. After 96 hours of this drug treatment, the 3DTMs were transferred to AM1 gel to study how different chemo-mechanical properties influenced escape from dormancy. Similar studies were also performed using ROCK inhibitor Y-27632 (20 μM).

The test system of data set [5] is dormant 3DTMs. The data set is described as follows: Intracellular calcium imaging. It counts as cell-based, human. Particulars: 3-hour treatment. As to the method: Dormant 3DTMs grown on AM3 Amikagels were treated with calcimycin (0.5 and 5 μM) with calcium (5 mM) and calcium liposomes (175 μM) for 3 hours (3 dormant 3DTMs each). Following 3 hours, the 3DTMs were disassembled using rapid pipetting and cells were collected by centrifugation. The cells were washed with 1×PBS and resuspended in 50 μL cell culture media+50 μL Fluo-4 dye solution (prepared as per vendor's recommendation). After incubation for 60 minutes, the cells were imaged at excitation: 494 nm, emission: 516 nm. Green color fluorescence was used as an indicator of intracellular calcium concentration. Intracellular calcium fluorescence was quantified using imageJ.

Data set [6] has as its system dormant T24 3DTMs. Particulars: for effect of pan-caspase inhibition on thapsigargin-bortezomib induced cell death: dormant T24 spheroids.
Description: (§1) Different concentrations (12.5, 25, 50 and 100 μM) of the anticancer drugs docetaxel, (10-40 μM) mitoxantrone, or (250-500 μM) thioTEPA were added to 3DTMs formed after 5-7 days of initial cell seeding on Amikagel. Drugs were added to 3DTMs of T24 cells co-cultured with NIH3T3 murine fibroblasts on day 5, but added to 3DTMs of T24 cells alone on day 7 due to the different times required for their formation After 96 hours of drug exposure, 3DTMs were disassembled using 50 μl of 5 mg/ml collagenase for 20 minutes to allow disassembly for co-culture spheroids, and cell viability was assessed by Live/Dead® staining followed by flow cytometry. 3DTM viability was also measured using MTT/XTT assay as described previously [28]. […] A calcium concentration of 5 mM was used with calcimycin ionophore of different concentrations (0.1, 0.5, 1, 5 and 10 μM) were used to induce cell death. Calcium liposomes were also added at a concentration of 175 μM to the dormant cells.
(§2) Viability of 3DTMs was also determined using the Live-Dead® (Calcein AM-Ethidium homodimer) staining assay. Fresh serum free DMEM media, containing a final concentration of 1 μM of calcein AM and 2 μM of ethidium homodimer-1 (EthD-1), was added to the 3DTMs, and fluorescence imaging was carried out using a Zeiss fluorescence microscope after incubating the reagents for 20 minutes. Green fluorescence emission of calcein-AM inside the live cells was detected using 38 HE filter set (Excitation: 470/40; Emission: 525/50) and red fluorescence of nucleic acid bound-EthD-1 was detected using a 43 HE filter set (Excitation: 550/25; Emission: 605/70). The extent of red and green fluorescence were indicative of the extent of viable and dead cells, respectively, in the 3DTM.
(§3) To quantify the percent dead cells using flow cytometer following drug treatment, 3DTMs were disassembled using collagenase as described previously (whenever necessary). Disassembled cells were suspended in 1×PBS containing a final concentration of 1 μM of Calcein AM and 2 μM of Ethidium Homodimer-1 (EthD-1). After incubating for 20 minutes, fluorescence images were collected as described in previous sections. Cell viability was further quantified using flow cytometry on the same sample using BD FACSAria™ III. Red fluorescence of EthD-1 was detected using a 43 HE filter set (Excitation: 550/25; Emission: 605/70).
Data set [7] concerns dormant T24 3DTMs. The data set is described as follows: cells. Conditions: Homo sapiens, 24 h, read-out: LC50.
Description: as §1, §2, §3
Data set [8] concerns CHOP. The data set is described as follows: CHOP expression by western blotting. Format: cell-based, human. Particulars: calcimycin 0.5-μM. As to the method:
[…] The lysates were then sonicated thrice for 10-15 seconds on ice and collected by centrifugation (16,000 rpm, 20 minutes, 4° C.). Supernatants containing the whole cell protein were stored at −20° C. for subsequent use.
BCA assay was used to quantify the total protein content of the cell lysates. Equivalent quantities of whole cell proteins (4 μg) were combined with 2× Laemmli buffer containing 5% β-mercaptoethanol, and were heat denatured for 5 minutes at 95° C. Equal amounts of protein (4 μg) were then loaded into to the wells of pre-cast gels and run for 35 minutes at 200 V in running buffer (25 mM Tris, […], and 0.1% SDS, pH=8.3). The proteins were transferred to a methanol-activated Hybond PVDF membrane for 30 minutes at 20 V in the transfer buffer (25 mM Tris, 190 mM glycine, and 20% methanol, pH=8.3). The Hybond PVDF membrane was rinsed with 1×PBST and blocked with 3% blocking buffer 3× for 5 minutes each. The membrane was then incubated with the primary antibody for 12 hours at 4° C. (1:1000 CHOP D46F1 Rabbit mAb primary antibody) and (1:5000 f-actin Rabbit Ab primary antibody). […]
Area of the proteins actin and CHOP on the […] membranes were measured using image-J software. The CHOP proteins from treatment samples were then normalized to their actin content and expressed which was further expressed as a percentage of the live control.
A general note: A western blot detects proteins with antibodies after separation by electrophoresis.

The subject of data set [9] is T24 cells in 2D culture. Put plainly: cells. Format: cell-based. Conditions: Homo sapiens, T-24, 96 h, read-out: LC50. As to the method: Cell death (%) after exposure of 5000 T24 cells to docetaxel for 96 hours after 2D cell culture measured by using MTT assay (circles).

Molecules are shown by their SMILES. “Also recorded” adds a separate entry of the source. Read-outs that look alike come from different tables or passages of the source. Peptide text beside a SMILES is read from it. * marks the point of attachment. Cbz = O=C(OCc1ccccc1)*; CH2F = FC*

`O=C1c2c(O)ccc(O)c2C(=O)c2c(NCCNCCO)ccc(NCCNCCO)c21` [mitoxantrone]: the “response of NIH3T3-T24 3DTMs” value in [1] (doses as high as 80 μM, 96 hours) is listed as “resistant”. Besides, the CC50 in data set [2] was about 9 µM.
As for `C[C@@H](N)[C@H]1CC[C@H](C(=O)Nc2ccncc2)CC1` [Amikagel Y-27632, Y-27632], in [3] (20-μM, 96 hours), the “cell cycle profile of dormant cells on AM3 gels” value is recorded as “did not observe any changes in the cell cycle profile”. Moreover, in data set [4] (20-μM for 96 hours on AM3 gel, then transfer to AM1 gel), the “cell escape from mother spheroid” value is on record as “increase in the number of cells escape”.
`[Ca+2].[Cl-].[Cl-]` [calcium, calcium chloride]: the “intracellular calcium fluorescence compared to DMSO control” value in data set [5] was “significantly higher”. For the same compound, the “impact on dormant cell viability” value in [6] (free calcium in cell culture media 40 mM, 96 hours) is reported as “minimal impact on dormant cell viability”.
For the compound `COC(=O)C[C@H](NC(=O)[C@H](C)NC(=O)[C@@H](NC(=O)OCc1ccccc1)C(C)C)C(=O)CF` [zVAD-fmk] (Cbz-Val-Ala-Asp(OMe)-CH2F), the “effect of pan-caspase inhibition on calcimycin-induced death” value in data set [6] (24-hour, 10-μM or 5-μM calcimycin, 5 mM calcium, 5-μM zVAD-fmk) was “did not rescue”. The “effect of pan-caspase inhibition on thapsigargin-bortezomib induced cell death” value in [6] (96 hours) is “reversed”; in [6] (96 hours, listed as z-VAD-fmk), “significantly rescued”.
On to `C/C=C(/C)C(=O)O[C@H]1C(C)=C2[C@H]([C@@H]1OC(=O)CCCCCCC)[C@@](C)(OC(C)=O)C[C@H](OC(=O)CCC)[C@@]1(O)[C@H]2OC(=O)[C@@]1(C)O` [thapsigargin], for which the cell death in [6] (single agent, 15-μM, 96 hour treatment) is on record as 50%.
In the case of `CNc1ccc2oc(C[C@H]3O[C@@]4(CC[C@H]3C)O[C@H]([C@H](C)C(=O)c3ccc[nH]3)[C@H](C)C[C@H]4C)nc2c1C(=O)O` [calcimycin], in data set [5], the “intracellular calcium fluorescence compared to DMSO control” value is given as “significantly higher”. In data set [7], the CC50 was about 10 µM. In addition, the CHOP protein expression result in data set [8] is reported as “No CHOP protein expression”. Moreover, the “cell death dose response” value in data set [6] (24-hour time point) is given as “concentration dependent cell death”.
`CC(=O)O[C@@]12CO[C@@H]1C[C@H](O)[C@@]1(C)C(=O)[C@H](O)C3=C(C)[C@@H](OC(=O)[C@H](O)[C@@H](NC(=O)OC(C)(C)C)c4ccccc4)C[C@@](O)([C@@H](OC(=O)c4ccccc4)[C@H]21)C3(C)C` [docetaxel]: the “cells in G2/M phase of treated dormant T24 3DTMs” value in data set [3] (drug-treated dormant T24 3DTMs) was “did not change the number of cells in G2/M phase”. Moreover, the “cells in pre G0/G1 phase of treated dormant T24 3DTMs” value in data set [3] (drug-treated dormant T24 3DTMs) is listed as “increase in the number of cells in the pre G0/G1 phase”. In addition, the CC50 in [9] amounted to 10 µM. Also, the “cell escape from mother 3DTM” value in data set [4] (12.5 μM-100 μM for 96 hours on AM3, then transfer to AM1) is given as “significantly reduced the number of cells escaping; also recorded: significantly lesser number of cells escaped”. Further, the figures for the microcolony formation result in data set [4] and in data set [4] (listed as Docetaxel) were “drastically reduced” and “inhibited microcolony formation”, respectively. In data set [6] (100 μM, 96 hours, compared to live control), this compound yielded a cell death of about 10%. In data set [6] (different doses, 96 hours of exposure, listed as Docetaxel), the “effect on cell viability of T24 3DTMs” value is “did not have any impact on the cell viability”.
As for `S=P(N1CC1)(N1CC1)N1CC1` [ThioTEPA], the “response of NIH3T3-T24 3DTMs” value in [1] (up to a concentration as high as 500 μM) is given as “resistant”.

The values above are taken from US20200165572A1, “ENGINEERED SUBSTRATES FOR HIGH-THROUGHPUT GENERATION OF 3D MODELS OF TUMOR DORMANCY, RELAPSE AND MICROMETASTASES FOR PHENOTYPE SPECIFIC DRUG DISCOVERY AND DEVELOPMENT” (Arizona Board of Regents on behalf of Arizona State …, priority 2015, published 2020).
